Assay results from PMC9338108 (Clinical Drug Investigation, 2022).
“And” between values parts separate entries of the source, which are not always exact repeats. Equal values may be shown once. Read-outs that look alike come from different tables or passages of the source.

What was measured:
[1] = Safety assessment Study 114; type: in vivo, human; settings: Study 114, N = 20
clinical = settings: human, plasma
[2] = Safety assessment Study 106 Part A; settings: for TEAEs related to individual study drugs: N = 33
[3] = cited from earlier work
[4] = type: in vivo, human
[5] = Safety assessment Study 106 Part B; settings: N = 24
[6] = type: in vivo, human; remark: listed apart in the source
[7] = system: P-glycoprotein transporter; settings: ref data on file, G1 Therapeutics; cited from earlier work
[8] = ref data on file, G1 Therapeutics; cited from earlier work
[9] = cited from earlier work; remark: listed apart in the source
[10] = type: in vivo, human; remark: listed apart in the source
cytochrome P450 3A4 = settings: background statement; cited from earlier work
[11] = metformin 1000 mg oral single dose alone, urine, N = 25, geometric mean (CV%)
[12] = trilaciclib vs trilaciclib alone
[13] = all resolved without intervention

CCC(C)n1ncn(-c2ccc(N3CCN(c4ccc(OCC5COC(Cn6cncn6)(c6ccc(Cl)cc6Cl)O5)cc4)CC3)cc2)c1=O (centres unmarked) [Itraconazole, itraconazole, reference compound]
TEAEs related to individual study drugs [1]: 2 (10.0) n (%)

CN(C)C(=N)N=C(N)N [Metformin, metformin]
Vd/F (clinical; oral): 556 L
AUC(0-inf) (clinical; po, 1000 mg): 11900 ng·h/mL
Cmax (clinical; po, 1000 mg): 1650 ng/mL
TEAEs related to individual study drugs [2]: 7 (21.2) n (%)
Tmax (metformin 1000 mg oral single dose alone, N = 25, median (range)): 2.50 (1.50–5.00) h
Ae (total amount of drug excreted in urine) [11]: 342 (25.1) mg
Fe (percentage of drug excreted in urine) [11]: 34.2 (25.1) %
geometric mean AUC0–inf higher after coadministration with trilaciclib (metformin vs metformin alone): 64.6%
geometric mean AUC0–last higher after coadministration with trilaciclib (metformin vs metformin alone): 66.0%
geometric mean Cmax higher after coadministration with trilaciclib (metformin vs metformin alone): 79.8%
AUC0–24 as share of AUC0–inf [3]: approximately 95%

Cc1ncc2n1-c1ccc(Cl)cc1C(c1ccccc1F)=NC2 [Midazolam, midazolam]
Vd/F ([4]; human, plasma, oral): 658 L
AUC(0-inf) ([4]; human, plasma, po, 5 mg): 64.6 ng·h/mL
AUC(0-t) ([4]; human, plasma, po, 5 mg): 62.1 ng·h/mL
Cmax ([4]; human, plasma, po, 5 mg): 24.4 ng/mL
Vd/F ([4]; human, plasma, po, 5 mg): 635 L
half-life ([4]; human, plasma, po, 5 mg): 341 min
CL/F ([4]; midazolam 5 mg oral single dose alone, N = 25, geometric mean (CV%)): 77.4 (34.2) L/h
Tmax ([4]; midazolam 5 mg oral single dose alone, N = 25, median (range)): 0.50 (0.25–1.50) h
Cmax decrease after multiple IV doses of trilaciclib ([4]; midazolam vs midazolam alone): 16.6%
geometric mean AUC0–inf higher after coadministration with trilaciclib ([4]; midazolam vs midazolam alone): 4.6%
geometric mean AUC0–last higher after coadministration with trilaciclib ([4]; midazolam vs midazolam alone): 4.0%
TEAEs related to individual study drugs [2]: 16 (48.5) n (%)

CO[C@H]1/C=C/O[C@@]2(C)Oc3c(C)c(O)c4c(O)c(c(/C=N/N5CCN(C)CC5)c(O)c4c3C2=O)NC(=O)/C(C)=C\C=C\[C@H](C)[C@H](O)[C@@H](C)[C@@H](O)[C@@H](C)[C@H](OC(C)=O)[C@@H]1C [Rifampin, rifampin, reference compound]
TEAEs related to individual study drugs [5]: 19 (79.2) n (%)

CN1CCN(c2ccc(Nc3ncc4cc5n(c4n3)C3(CCCCC3)CNC5=O)nc2)CC1 [Trilaciclib, trilaciclib]
Tmax ([6]; human, plasma, intravenous): 28.8 min
AUC(0-inf) ([6]; human, plasma, iv, 200 mg/m2): 3120 ng·h/mL
AUC(0-t) ([6]; human, plasma, iv, 200 mg/m2): 3070 ng·h/mL
Cmax ([6]; human, plasma, iv, 200 mg/m2): 1770 ng/mL
Tmax ([6]; human, plasma, iv, 200 mg/m2): 24 min
clearance ([6]; human, plasma, iv, 200 mg/m2): 2120 mL/min
half-life ([6]; human, plasma, iv, 200 mg/m2): 547 min
geometric mean AUC0–inf decrease with itraconazole [6, 12]: 14.0% and 13.6%
geometric mean AUC0–last decrease with itraconazole [6, 12]: 13.3%
geometric mean Cmax decrease with itraconazole [6, 12]: 28.0%
substrate of the P-glycoprotein transporter [7]: substrate of the P-glycoprotein transporter
TEAEs related to individual study drugs [1]: 9 (45.0) n (%)
TEAEs related to individual study drugs [5]: 20 (83.3) n (%)
unbound fraction in plasma [8]: approximately 30%
clearance [9]: 158 L/h
mean terminal half-life (t1/2) [9]: approximately 14 h
parent molecule recovered in the excreta [9]: less than 10%
subjects reporting TEAEs of thrombophlebitis ([2]; 25 subjects enrolled after adjustment of drug administration): 24%
TEAEs related to individual study drugs [2]: 33 (100) n (%)
subjects with Grade 3 TEAEs of neutropenia related to trilaciclib [2, 13]: 5 n
subjects with Grade 4 TEAEs of neutropenia related to trilaciclib [2, 13]: 1 n
subjects discontinued because of phlebitis in the arm related to trilaciclib administration ([2]; initial eight subjects (Site 1)): eight
Tmax ([10]; human, plasma, intravenous): 30 min
clearance ([10]; human, plasma, intravenous): 3520 mL/min
AUC(0-inf) ([10]; human, plasma, iv, 240 mg/m2): 2700 ng·h/mL
AUC(0-t) ([10]; human, plasma, iv, 240 mg/m2): 2670 ng·h/mL
Cmax ([10]; human, plasma, iv, 240 mg/m2): 1600 ng/mL
Tmax ([10]; human, plasma, iv, 240 mg/m2): 25.2 min
clearance ([10]; human, plasma, iv, 240 mg/m2): 2920 mL/min
half-life ([10]; human, plasma, iv, 240 mg/m2): 606 min
geometric mean AUC0–inf decrease with rifampin [10, 12]: 17.3% and 17%
geometric mean AUC0–last decrease with rifampin [10, 12]: 17.3%
geometric mean Cmax reduction with rifampin [10, 12]: 19.9%
time-dependent inhibitor of cytochrome P450 3A4 (cytochrome P450 3A4): time-dependent inhibitor of cytochrome P450 3A4
